Assay results: patent publication US9750708B2 (The Regents of the University of California, priority 2006, dated 2017)

What was measured:
[1] = system: mice with the gene mutation for Huntington's disease; settings: mouse, in vivo; cited from earlier work
[2] = Plasma cysteamine after delivery of cysteamine through a nasoenteric tube into stomach, small intestine or cecum; type: in vivo; settings: human, 10 mg/kg/dose of base, Mean plasma cysteamine Cmax
Experimental: Adult control patients were recruited locally. […] None of the patients had undergone kidney transplantation. Baseline chemistry, Helicobacter pylori serologic study, complete blood count, and urinalysis were performed.
(§1) Immediately proximal to the balloon was an infusion port (1 mm diameter) through which the drug was delivered. […] On day 1 of the study, the nasoenteric tube was inserted into the stomach. By day 3 of the study the tube had passed into the proximal small intestine (SI) just distal to the ligament of Treitz (confirmed fluoroscopically). The balloon was then inflated, and peristalsis propelled the tube distally. Tube position within the cecum was confirmed fluoroscopically on day 5 (day 7 in 4 patients because of slow transit). If the tube had migrated too far, it was retracted into the desired location.
(§2) After an overnight fast (except for water) blood samples were taken at baseline and at varying intervals after intraluminal delivery of cysteamine. […] Gastrin was measured in picograms/mL with the Diagnostic Products Corporation (Los Angeles, Calif.) gastrin radioimmunoassay-assay kit. Leukocyte cystine levels were measured in nmol half-cystine per mg protein by the Cystine Determination Lab (La Jolla, Calif.).
Differences between means for the 3 sites were tested, plus group and group x site interaction effects for the combined groups. If a site effect was detected, Tukey's HSD was applied to determine which sites differed from each other.

leukocyte cystine [3] = test: Leukocyte cystine levels after intraluminal delivery of cysteamine in patients with cystinosis; type: in vivo, human
From the text: as §1, §2
AOC is computationally analogous to area under the curve, but it is applied when values are predominantly decreasing below baseline values. Large AOC values reflect large decreases, and a negative AOC reflects a net increase in value. Main effects for site of delivery, time after delivery, and the interaction between site and time were tested, except just the site effect was tested for AOCs. In the absence of significant interaction when a main effect was detected, Tukey's honestly significant difference test (HSD) was applied to identify where differences occurred within a 5% family wise error rate. The Tukey HSD procedure controls for overall significance level when performing all pairwise comparisons.

gastrin = test: Serum gastrin after intraluminal delivery of cysteamine (radioimmunoassay); type: in vivo, human
From the text: as §1, §2
REML repeated measures analyses of variance were also performed as described above on gastrin levels. […] A 5% significance level was used without adjustment for all statistical testing.

[4] = Symptoms after intraluminal cysteamine delivery; type: in vivo, human; settings: cystinosis subject
From the text: as §1
Only 2 patients (1 male, 1 female) with cystinosis reported regular GI symptoms before the study, and these had responded to acid-suppression therapy. […] No other symptoms were reported after any other cysteamine delivery in the children with cystinosis. There were no associated adverse events with tube placement or removal.

leukocyte cystine [5] = settings: cited from earlier work
[6] = children with cystinosis; cited from earlier work

Q: With NCCSSCCN [Cystamine, cystamine] as the molecule, how does the “Effect in mice with the gene mutation for Huntington's disease” value [1] read?
A: alleviate tremors and prolong life

Q: With NCCS [cysteamine] as the molecule, how does the Cmax ([2]; other: infused through nasoenteric tube into cecum, combined cystinosis and control subjects, delivery into cecum) read?
A: 22.5 µM

Q: What about the Cmax ([2]; other: infused through nasoenteric tube into cecum, control subjects, delivery into cecum) of the same molecule?
A: 23.1 µM

Q: And the Cmax ([2]; other: infused through nasoenteric tube into cecum, cystinosis subjects, delivery into cecum)?
A: 21.9 µM

Q: What about the Cmax ([2]; other: infused through nasoenteric tube into small intestine, combined cystinosis and control subjects, delivery into small intestine) of the same molecule?
A: 53.2 µM

Q: What about the Cmax ([2]; other: infused through nasoenteric tube into small intestine, control subjects, delivery into small intestine) of the same molecule?
A: 51.1 µM

Q: What about the Cmax ([2]; other: infused through nasoenteric tube into small intestine, cystinosis subjects, delivery into small intestine) of the same molecule?
A: 55.8 µM

Q: And the Cmax ([2]; other: infused through nasoenteric tube into stomach, combined cystinosis and control subjects, delivery into stomach)?
A: 37.8 µM

Q: And the Cmax ([2]; other: infused through nasoenteric tube into stomach, control subjects, delivery into stomach)?
A: 39.5 µM

Q: What about the Cmax ([2]; other: infused through nasoenteric tube into stomach, cystinosis subjects, delivery into stomach) of the same molecule?
A: 35.5 µM

Q: And the “Time leukocyte cystine levels remained at the 1-hour level” value (leukocyte cystine [3]; after delivery, at 48 hours not returned to pre-cysteamine level)?
A: 24 h

Q: What about the “Time leukocyte cystine levels remained below pre-delivery levels” value (leukocyte cystine [3]; single dose of cysteamine into the small intestine (FIG. 3)) of the same molecule?
A: up to 12 hours

Q: And the “Decrease in leukocyte cystine after cysteamine delivery” value (leukocyte cystine [3]; within an hour of delivery)?
A: dramatic decrease in leukocyte cystine

Q: And the “Gastrin level after gastric cysteamine” value (gastrin; 1 child with severe GI symptoms, 30 minutes after gastric delivery, baseline 70 pg/mL)?
A: 121 pg/mL

Q: What about the “Gastrin levels, baseline and post-cysteamine (undetectable)” value (gastrin; control group, more than half of the levels, any delivery site) of the same molecule?
A: < 25 pg/mL

Q: What about the “Symptoms after infusion into the proximal small intestine” value [4] of the same molecule?
A: did not have any symptoms

Q: And the “Symptoms after intragastric cysteamine” value ([4]; about 15 minutes after delivery)?
A: severe retching and emesis

Q: What about the Period of activity (leukocyte cystine [5]; oral Cystagon capsules) of the same molecule?
A: 5 to 6 h

Q: And the “Time leukocyte cystine level remained suppressed” value (leukocyte cystine [5]; single dose administered intravenously)?
A: more than 24 hours

Q: And the “Depletion of intracellular cystine” value (leukocyte cystine [5]; taken regularly, measured in circulating white blood cells)?
A: up to 90%

Q: With COc1ccc2c(c1)c(CC(=O)O)c(C)n2C(=O)c1ccc(Cl)cc1 [indomethacin] as the molecule, how does the “Reduction of urine volume and liquid consumption” value [6] read?
A: about 30%
